Experimental findings from US20120315629A1, “Cloning and Expression of arNOX Protein Transmembrane 9 Superfamily (TM9SF), Methods and Utility” (Nox Technologies ,Inc., priority 2009, published 2012) are described below.

The target of this assay is T1, Recombinant arNOX (TM9SF4) (Homo sapiens, UniProt Q92544).
T1 construct: cloning of the soluble fragment of TM9SF4 was successful; Met-Ala-Ser leader from NdeI/NheI of pET11b (my inference from the forward primer CATATGGCTAGCATG); made in house; host or cells: E. coli BL21 (DE3), pET11b
T1 sequence (Q92544 24-252): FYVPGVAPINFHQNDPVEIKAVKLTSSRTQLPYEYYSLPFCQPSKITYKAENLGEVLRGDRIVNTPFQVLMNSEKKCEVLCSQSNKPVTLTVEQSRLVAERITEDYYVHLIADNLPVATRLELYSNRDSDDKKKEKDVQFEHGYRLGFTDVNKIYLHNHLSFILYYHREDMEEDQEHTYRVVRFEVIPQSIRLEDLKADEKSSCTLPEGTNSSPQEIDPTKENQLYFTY
Put plainly: arNOX activity: superoxide generation measured by reduction of ferricytochrome c. It is filed as biochemical. Particulars: test compounds added after 45 min, reaction continued for an additional 45 min; for inhibition of recombinant arNOX (TM9SF4) activity: extracts made in water unless otherwise indicated. How it is done: Reduction of ferric cytochrome c by superoxide was employed as a standard measure of superoxide formation (Mayo, L. A. and Curnutte, J., 1990, Meth. Enzymol. 186:567-575; Butler, J. et al., 1982, J. Biol. Chem. 257:10747-10750). This method, when coupled to superoxide dismutase inhibition, is generally accepted for the measurement of superoxide generation. The assay consists of 150 μl buffy coat material in PBSG buffer (8.06 g NaCl, 0.2 g KCl, 0.18 g Na2HPO4, 0.13 g CaCl2, 0.1 g MgCl2, 1.35 g glucose dissolved in 1000 ml deionized water, adjusted to pH 7.4, filtered and stored at 4° C.). Reduction of ferricytochrome c by superoxide was monitored as the increase in absorbance at 550 nm, with reference at 540 nm (Butler et al., 1982). As a further control for the specificity of the arNOX activity, 60 units of superoxide dismutase (SOD) were added near the end of the assay to ascertain that the rate returned to base line. Rates were determined using a SLM Aminco DW-2000 spectrophotometer in the dual wavelength mode of operation.
Rates were determined using an SLM Aminco DW-2000 spectrophotometer (Milton Roy, Rochester, N.Y.) in the dual wave length mode of operation with continuous measurements over 1 min every 1.5 min. After 45 min, test compounds were added and the reaction was continued for an additional 45 min. After 45 min, a millimolar extinction coefficient of 19.1 cm^−1 was used for reduced ferricytochrome c. The results of the test compounds are provided below (Table 4) for experiments carried out with TM9SF4, but from the results of FIG. 7, it is concluded that all the arNOX isoforms have similar responses to the various compounds given below. Extracts were made of the compounds in water unless otherwise indicated.

Turning to `O=C(O)c1cc(O)c(O)c(O)c1` [gallic acid], the “inhibition of recombinant arNOX (TM9SF4) activity” value came out at 80%.

On to `CCC(C)C(=O)OC1C(=O)OC2CC3C(C)=CC(=O)C(O)C3(C)C3C(O)C(O)C4(C)OCC23C14` (stereo not drawn) [similikalactone D], for which the “sensitivity of recombinant arNOX (TM9SF4) activity to the compound (in words)” value was “resistant”.

With superoxide dismutase, the “inhibition of recombinant arNOX (TM9SF4) activity” value is given as 78%.
